Data taken from patent publication US20240116896A1 (ATAI Life Sciences AG, priority 2022, published 2024).
pEC50: −log10 of the molar value.

Tests used:
5-HT2A = 5-HT2A (Homo sapiens, UniProt P28223); experiment: IPOne (IP1 HTRF) assay, CHO-K1 cells expressing human 5-HT2A; assay type: cell-based; design: expressed in transfected cells; host or cells: CHO-K1; conditions: for activation at 0.3 µM / activation at 30 µM: CHO-K1, percentage of reference agonist α-Me-5-HT at its EC100; for pEC50: CHO-K1, human 5-HT2A
Chain of 5-HT2A (P28223 whole entry): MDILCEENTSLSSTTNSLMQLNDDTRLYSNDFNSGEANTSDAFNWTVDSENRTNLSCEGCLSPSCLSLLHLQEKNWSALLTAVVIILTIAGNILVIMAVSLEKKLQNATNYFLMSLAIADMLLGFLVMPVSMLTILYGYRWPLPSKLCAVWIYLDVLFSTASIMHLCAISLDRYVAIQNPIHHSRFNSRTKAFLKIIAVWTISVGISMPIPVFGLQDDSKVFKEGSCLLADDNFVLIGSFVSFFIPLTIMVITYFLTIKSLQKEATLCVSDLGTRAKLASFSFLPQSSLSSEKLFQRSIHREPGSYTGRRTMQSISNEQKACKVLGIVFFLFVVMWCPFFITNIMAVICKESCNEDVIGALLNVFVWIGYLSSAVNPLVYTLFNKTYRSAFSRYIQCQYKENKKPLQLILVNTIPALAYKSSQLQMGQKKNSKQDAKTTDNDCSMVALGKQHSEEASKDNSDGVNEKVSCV
Description: (§1) IPOne assays were performed using stably-transfected cell lines (CHO-K1) expressing human 5-HT2A or 5-HT2B receptors. Upon activation of these receptors, Gq-mediated myo-Inositol 1 phosphate (IP1) production is detected by a Homogeneous Time-Resolved Fluorescence (HTRF) competitive immunoassay, whereby an IP1 analog coupled to a fluorophore (acceptor) competes with endogenous IP1 for binding to a labeled anti-IP1 antibody (donor). The resulting signal is inversely proportional to the concentration of IP1 in the sample. Cells were incubated with an IP1 inhibitor (to prevent degradation and allow detection) and either reference compound or test compound. α-Me-5-HT was used as the assay reference agonist. Activation of 5-HT2A or 5-HT2B receptors was measured via accumulation of IP1 detected by HTRF. Agonist activity of test compounds was expressed as a percentage of the activity of the reference agonist at its EC100 concentration.

5-HT2B = 5-HT2B (Homo sapiens, UniProt P41595); experiment: IPOne (IP1 HTRF) assay, CHO-K1 cells expressing human 5-HT2B; assay type: cell-based; design: expressed in transfected cells; host or cells: CHO-K1; conditions: for activation at 0.3 µM / activation at 30 µM: CHO-K1, percentage of reference agonist α-Me-5-HT at its EC100; for pEC50: CHO-K1, human 5-HT2B
Chain of 5-HT2B (P41595 whole entry): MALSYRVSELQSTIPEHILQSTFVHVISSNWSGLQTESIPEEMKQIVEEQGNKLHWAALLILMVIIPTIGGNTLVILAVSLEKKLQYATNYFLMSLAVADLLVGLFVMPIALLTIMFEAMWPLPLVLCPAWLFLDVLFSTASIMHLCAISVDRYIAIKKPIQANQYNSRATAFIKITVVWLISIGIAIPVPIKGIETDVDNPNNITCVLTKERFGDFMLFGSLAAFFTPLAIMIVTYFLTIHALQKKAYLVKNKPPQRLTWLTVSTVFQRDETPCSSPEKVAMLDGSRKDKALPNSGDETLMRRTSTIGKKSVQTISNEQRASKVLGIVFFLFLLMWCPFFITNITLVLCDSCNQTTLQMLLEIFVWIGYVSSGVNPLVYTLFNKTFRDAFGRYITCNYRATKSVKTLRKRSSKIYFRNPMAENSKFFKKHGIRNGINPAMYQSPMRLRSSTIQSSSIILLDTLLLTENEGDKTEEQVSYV
Description: as §1

NCC1CCCN1CCc1c[nH]c2ccccc12 (stereo not drawn) [Compound 22]
activation at 0.3 µM (5-HT2A): 10.2%
activation at 30 µM (5-HT2A): 99%
activation at 0.3 µM (5-HT2B): 20%
activation at 30 µM (5-HT2B): 99.6%

COC(=O)[C@]1(C)CCCN1CCc1c[nH]c2ccccc12 [Compound 92, methyl (S)-1-(2-(1H-indol-3-yl)ethyl)-2-methylpyrrolidine-2-carboxylate]
activation at 0.3 µM (5-HT2A): -16.3%
activation at 30 µM (5-HT2A): -6.28%
activation at 0.3 µM (5-HT2B): -2.23%
activation at 30 µM (5-HT2B): 15.4%

CC(C)(O)[C@@H]1CCCN1CCc1c[nH]c2ccccc12 [Compound 74, 2-[(2S)-1-[2-(1H-indol-3-yl)ethyl]pyrrolidin-2-yl] propan-2-ol]
pEC50 (5-HT2A): 6.61
activation at 0.3 µM (5-HT2A): 80.2%
activation at 30 µM (5-HT2A): 102%
pEC50 (5-HT2B): 6.28
activation at 0.3 µM (5-HT2B): 63%
activation at 30 µM (5-HT2B): 100%

OC[C@@H]1CCN1CCc1c[nH]c2ccccc12 [Compound 54, (S)-(1-(2-(1H-indol-3-yl)ethyl)azetidin-2-yl)methanol]
pEC50 (5-HT2A): 6.60
activation at 0.3 µM (5-HT2A): 81.1%
activation at 30 µM (5-HT2A): 101%
pEC50 (5-HT2B): 6.11
activation at 0.3 µM (5-HT2B): 62%
activation at 30 µM (5-HT2B): 97.9%

COc1ccc2[nH]c(Br)c(CCN3CCCC3CO)c2c1 (stereo not drawn) [Compound 72, (1-(2-(2-bromo-5-methoxy-1H-indol-3-yl)ethyl)pyrrolidin-2-yl)methanol]
activation at 0.3 µM (5-HT2A): 5.63%
activation at 30 µM (5-HT2A): 37.6%
activation at 0.3 µM (5-HT2B): 13.5%
activation at 30 µM (5-HT2B): 41.7%

COc1ccc(Br)c2[nH]cc(CCN3CCCC3CO)c12 (stereo not drawn) [Compound 42, (1-(2-(7-bromo-4-methoxy-1H-indol-3-yl)ethyl)pyrrolidin-2-yl)methanol]
activation at 0.3 µM (5-HT2A): 78.5%
activation at 30 µM (5-HT2A): 94.1%
activation at 0.3 µM (5-HT2B): 22%
activation at 30 µM (5-HT2B): 46.2%

OC[C@@H]1CCCN1CCc1c[nH]c2ccc(O)cc12 [Compound 51]
pEC50 (5-HT2A): 7.34
activation at 0.3 µM (5-HT2A): 99%
activation at 30 µM (5-HT2A): 101%
pEC50 (5-HT2B): 7.06
activation at 0.3 µM (5-HT2B): 85.7%
activation at 30 µM (5-HT2B): 99.1%

COc1cccc2[nH]cc(CCN3CCC[C@H]3CO)c12 [Compound 48, (S)-(1-(2-(4-methoxy-1H-indol-3-yl)ethyl)pyrrolidin-2-yl)methanol]
pEC50 (5-HT2A): 7.95
activation at 0.3 µM (5-HT2A): 83.2%
activation at 30 µM (5-HT2A): 90.9%
pEC50 (5-HT2B): 7.65
activation at 0.3 µM (5-HT2B): 62%
activation at 30 µM (5-HT2B): 83.4%

OC[C@@H]1CCCN1CCc1c[nH]c2ncccc12 [Compound 95, (S)-(1-(2-(1H-pyrrolo[2,3-b]pyridin-3-yl)ethyl)pyrrolidin-2-yl)methanol]
activation at 0.3 µM (5-HT2A): 0.81%
activation at 30 µM (5-HT2A): 84.3%
activation at 0.3 µM (5-HT2B): 1.09%
activation at 30 µM (5-HT2B): 9.66%

OCC1CCCN1CCc1c[nH]c2cccc(O)c12 (stereo not drawn) [Compound 29, 3-(2-(2-(hydroxymethyl)pyrrolidin-1-yl)ethyl)-1H-indol-4-ol]
activation at 0.3 µM (5-HT2A): 99.4%
activation at 30 µM (5-HT2A): 99.2%
activation at 0.3 µM (5-HT2B): 90.8%
activation at 30 µM (5-HT2B): 96.4%

OCC1CCCN1CCc1c(Br)[nH]c2ccc(F)cc12 (stereo not drawn) [Compound 69, (1-(2-(2-bromo-5-fluoro-1H-indol-3-yl)ethyl)pyrrolidin-2-yl)methanol]
activation at 0.3 µM (5-HT2A): 15.1%
activation at 30 µM (5-HT2A): 83.8%
activation at 0.3 µM (5-HT2B): 27.6%
activation at 30 µM (5-HT2B): 90.5%

C[C@@H](O)[C@@H]1CCCN1CCc1c[nH]c2ccccc12 [Compound 75]
activation at 0.3 µM (5-HT2A): 23.4%
activation at 30 µM (5-HT2A): 87.3%
activation at 0.3 µM (5-HT2B): 5.88%
activation at 30 µM (5-HT2B): 80.2%

OC[C@H]1CCN1CCc1c[nH]c2ccccc12 [Compound 53, (R)-(1-(2-(1H-indol-3-yl)ethyl)azetidin-2-yl)methanol]
activation at 0.3 µM (5-HT2A): 3.07%
activation at 30 µM (5-HT2A): 70.7%
activation at 0.3 µM (5-HT2B): 16.3%
activation at 30 µM (5-HT2B): 74.7%

COc1ccc2[nH]cc(CCN3CCC[C@H]3CO)c2c1 [Compound 50]
pEC50 (5-HT2A): 7.90
activation at 0.3 µM (5-HT2A): 100%
activation at 30 µM (5-HT2A): 103%
pEC50 (5-HT2B): 8.06
activation at 0.3 µM (5-HT2B): 101%
activation at 30 µM (5-HT2B): 101%

OC[C@H]1CCCN1CCc1c[nH]c2ccccc12 [Compound 32, (R)-(1-(2-(1H-indol-3-yl)ethyl)pyrrolidin-2-yl)methanol]
activation at 0.3 µM (5-HT2A): 7.16%
activation at 30 µM (5-HT2A): 42.1%
activation at 0.3 µM (5-HT2B): 4.28%
activation at 30 µM (5-HT2B): 33.9%

COC(=O)[C@@H]1CCCN1CCc1c[nH]c2ccccc12 [Compound 33, methyl (2-(1H-indol-3-yl)ethyl)-L-prolinate]
pEC50 (5-HT2A): 6.09
activation at 0.3 µM (5-HT2A): 44%
activation at 30 µM (5-HT2A): 94.4%
pEC50 (5-HT2B): 6.34
activation at 0.3 µM (5-HT2B): 33.9%
activation at 30 µM (5-HT2B): 91.3%

C[C@H](O)[C@@H]1CCCN1CCc1c[nH]c2ccccc12 [Compound 73, (S)-1-((S)-1-(2-(1H-indol-3-yl)ethyl)pyrrolidin-2-yl)ethan-1-ol]
pEC50 (5-HT2A): 6.25
activation at 0.3 µM (5-HT2A): 61.9%
activation at 30 µM (5-HT2A): 101%
pEC50 (5-HT2B): 6.02
activation at 0.3 µM (5-HT2B): 61.2%
activation at 30 µM (5-HT2B): 104%

CCOC(=O)[C@@H]1CCCN1CCc1c[nH]c2ccccc12 [Compound 52, ethyl (2-(1H-indol-3-yl)ethyl)-L-prolinate]
pEC50 (5-HT2A): 6.05
activation at 0.3 µM (5-HT2A): 24%
activation at 30 µM (5-HT2A): 101%
pEC50 (5-HT2B): 5.59
activation at 0.3 µM (5-HT2B): 25.4%
activation at 30 µM (5-HT2B): 99.2%

COc1cccc2[nH]c(Br)c(CCN3CCCC3CO)c12 (stereo not drawn) [Compound 67, (1-(2-(2-bromo-4-methoxy-1H-indol-3-yl)ethyl)pyrrolidin-2-yl)methanol]
activation at 0.3 µM (5-HT2A): 27.2%
activation at 30 µM (5-HT2A): 95.9%
activation at 0.3 µM (5-HT2B): 19.2%
activation at 30 µM (5-HT2B): 87.1%

COC(=O)[C@@H]1CCCN1CCc1c[nH]c2ncccc12 [Compound 94, methyl (2-(1H-pyrrolo[2,3-b]pyridin-3-yl)ethyl)-L-prolinate]
activation at 0.3 µM (5-HT2A): 0.14%
activation at 30 µM (5-HT2A): 54.3%
activation at 0.3 µM (5-HT2B): -0.22%
activation at 30 µM (5-HT2B): 2.48%

OC[C@@H]1CCCN1CCc1c[nH]c2ccc(OC(F)(F)F)cc12 [Compound 61, (S)-(1-(2-(5-(trifluoromethoxy)-1H-indol-3-yl)ethyl)pyrrolidin-2-yl)methanol]
pEC50 (5-HT2A): 7.12
activation at 0.3 µM (5-HT2A): 46.1%
activation at 30 µM (5-HT2A): 88.3%
pEC50 (5-HT2B): 7.24
activation at 0.3 µM (5-HT2B): 37.5%
activation at 30 µM (5-HT2B): 76.2%

OC[C@@H]1CCCN1CCc1c(Br)[nH]c2ccccc12 [Compound 57, (S)-(1-(2-(2-bromo-1H-indol-3-yl)ethyl)pyrrolidin-2-yl)methanol]
activation at 0.3 µM (5-HT2A): 4.69%
activation at 30 µM (5-HT2A): 30.9%
activation at 0.3 µM (5-HT2B): -1.03%
activation at 30 µM (5-HT2B): 73%

OC[C@@H]1CCCN1CCc1c[nH]c2cccc(O)c12 [Compound 49, (S)-3-(2-(2-(hydroxymethyl)pyrrolidin-1-yl)ethyl)-1H-indol-4-ol]
pEC50 (5-HT2A): 7.65
activation at 0.3 µM (5-HT2A): 99.2%
activation at 30 µM (5-HT2A): 100%
pEC50 (5-HT2B): 7.36
activation at 0.3 µM (5-HT2B): 92%
activation at 30 µM (5-HT2B): 99.1%

CC[C@@H](O)[C@@H]1CCCN1CCc1c[nH]c2ccccc12 [Compound 77, (R)-1-((S)-1-(2-(1H-indol-3-yl)ethyl)pyrrolidin-2-yl)propan-1-ol]
activation at 0.3 µM (5-HT2A): 23.9%
activation at 30 µM (5-HT2A): 90.6%
activation at 0.3 µM (5-HT2B): 18.2%
activation at 30 µM (5-HT2B): 86.7%

CC(C)OC(=O)[C@@H]1CCCN1CCc1c[nH]c2ccccc12 [Compound 55, isopropyl (2-(1H-indol-3-yl)ethyl)-L-prolinate]
pEC50 (5-HT2A): 6.45
activation at 0.3 µM (5-HT2A): 68.1%
activation at 30 µM (5-HT2A): 101%
pEC50 (5-HT2B): 5.98
activation at 0.3 µM (5-HT2B): 37.7%
activation at 30 µM (5-HT2B): 102%

OC[C@@H]1CCCN1CCc1c[nH]c2ccccc12 [Compound 31, (S)-(1-(2-(1H-indol-3-yl)ethyl)pyrrolidin-2-yl)methanol]
pEC50 (5-HT2A): 7.21
activation at 0.3 µM (5-HT2A): 76.5%
activation at 30 µM (5-HT2A): 99.5%
pEC50 (5-HT2B): 6.90
activation at 0.3 µM (5-HT2B): 54.6%
activation at 30 µM (5-HT2B): 97%

OCC1CCCN1CCc1c(Cl)[nH]c2ccc(F)cc12 (stereo not drawn) [Compound 70, (1-(2-(2-chloro-5-fluoro-1H-indol-3-yl)ethyl)pyrrolidin-2-yl)methanol]
activation at 0.3 µM (5-HT2A): 61%
activation at 30 µM (5-HT2A): 97.7%
activation at 0.3 µM (5-HT2B): 55.1%
activation at 30 µM (5-HT2B): 99.8%

COC(=O)[C@H]1CCCN1CCc1c[nH]c2ccccc12 [Compound 34, methyl (2-(1H-indol-3-yl)ethyl)-D-prolinate]
activation at 0.3 µM (5-HT2A): 4.6%
activation at 30 µM (5-HT2A): 29.9%
activation at 0.3 µM (5-HT2B): 1.34%
activation at 30 µM (5-HT2B): 35.1%

OC[C@@H]1CCCN1CCc1c[nH]c2ccc(F)cc12 [Compound 59, (S)-(1-(2-(5-fluoro-1H-indol-3-yl)ethyl)pyrrolidin-2-yl)methanol]
pEC50 (5-HT2A): 8.11
activation at 0.3 µM (5-HT2A): 86.3%
activation at 30 µM (5-HT2A): 89.4%
pEC50 (5-HT2B): 8.05
activation at 0.3 µM (5-HT2B): 79.8%
activation at 30 µM (5-HT2B): 85.7%

COc1ccc2[nH]cc(CCN3CCCC3CO)c2c1 (stereo not drawn) [Compound 30]
activation at 0.3 µM (5-HT2A): 97.8%
activation at 30 µM (5-HT2A): 100%
activation at 0.3 µM (5-HT2B): 89.4%
activation at 30 µM (5-HT2B): 98.8%

CC[C@H](O)[C@@H]1CCCN1CCc1c[nH]c2ccccc12 [Compound 78, (S)-1-((S)-1-(2-(1H-indol-3-yl)ethyl)pyrrolidin-2-yl)propan-1-ol]
activation at 0.3 µM (5-HT2A): 1.39%
activation at 30 µM (5-HT2A): 64.3%
activation at 0.3 µM (5-HT2B): 5.16%
activation at 30 µM (5-HT2B): 82.2%
